Target: T1, ΔF508-CFTR (Homo sapiens, UniProt P13569, DEL508-508)
T1 construct: expressed in transfected cells
Test: Membrane potential optical assay (FRET voltage-sensor dyes, VIPR), identification of potentiator compounds
Type: cell-based
Settings: Table 3, assay not given; for Emax: read-out: % Activity (% Efficacy, relative efficacy)
Outline: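 Potentiator screen measured membrane potential via FRET between CC2-DMPE donor and DiSBAC2(3), read on VIPR II. Compound went in with the first addition of chloride-free gluconate bath; cells were ΔF508-CFTR-expressing NIH3T3 mouse fibroblasts, temperature-corrected at 27 °C for 24 h.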

T1 sequence (P13569 with tags, fused parts or gaps DEL508-508): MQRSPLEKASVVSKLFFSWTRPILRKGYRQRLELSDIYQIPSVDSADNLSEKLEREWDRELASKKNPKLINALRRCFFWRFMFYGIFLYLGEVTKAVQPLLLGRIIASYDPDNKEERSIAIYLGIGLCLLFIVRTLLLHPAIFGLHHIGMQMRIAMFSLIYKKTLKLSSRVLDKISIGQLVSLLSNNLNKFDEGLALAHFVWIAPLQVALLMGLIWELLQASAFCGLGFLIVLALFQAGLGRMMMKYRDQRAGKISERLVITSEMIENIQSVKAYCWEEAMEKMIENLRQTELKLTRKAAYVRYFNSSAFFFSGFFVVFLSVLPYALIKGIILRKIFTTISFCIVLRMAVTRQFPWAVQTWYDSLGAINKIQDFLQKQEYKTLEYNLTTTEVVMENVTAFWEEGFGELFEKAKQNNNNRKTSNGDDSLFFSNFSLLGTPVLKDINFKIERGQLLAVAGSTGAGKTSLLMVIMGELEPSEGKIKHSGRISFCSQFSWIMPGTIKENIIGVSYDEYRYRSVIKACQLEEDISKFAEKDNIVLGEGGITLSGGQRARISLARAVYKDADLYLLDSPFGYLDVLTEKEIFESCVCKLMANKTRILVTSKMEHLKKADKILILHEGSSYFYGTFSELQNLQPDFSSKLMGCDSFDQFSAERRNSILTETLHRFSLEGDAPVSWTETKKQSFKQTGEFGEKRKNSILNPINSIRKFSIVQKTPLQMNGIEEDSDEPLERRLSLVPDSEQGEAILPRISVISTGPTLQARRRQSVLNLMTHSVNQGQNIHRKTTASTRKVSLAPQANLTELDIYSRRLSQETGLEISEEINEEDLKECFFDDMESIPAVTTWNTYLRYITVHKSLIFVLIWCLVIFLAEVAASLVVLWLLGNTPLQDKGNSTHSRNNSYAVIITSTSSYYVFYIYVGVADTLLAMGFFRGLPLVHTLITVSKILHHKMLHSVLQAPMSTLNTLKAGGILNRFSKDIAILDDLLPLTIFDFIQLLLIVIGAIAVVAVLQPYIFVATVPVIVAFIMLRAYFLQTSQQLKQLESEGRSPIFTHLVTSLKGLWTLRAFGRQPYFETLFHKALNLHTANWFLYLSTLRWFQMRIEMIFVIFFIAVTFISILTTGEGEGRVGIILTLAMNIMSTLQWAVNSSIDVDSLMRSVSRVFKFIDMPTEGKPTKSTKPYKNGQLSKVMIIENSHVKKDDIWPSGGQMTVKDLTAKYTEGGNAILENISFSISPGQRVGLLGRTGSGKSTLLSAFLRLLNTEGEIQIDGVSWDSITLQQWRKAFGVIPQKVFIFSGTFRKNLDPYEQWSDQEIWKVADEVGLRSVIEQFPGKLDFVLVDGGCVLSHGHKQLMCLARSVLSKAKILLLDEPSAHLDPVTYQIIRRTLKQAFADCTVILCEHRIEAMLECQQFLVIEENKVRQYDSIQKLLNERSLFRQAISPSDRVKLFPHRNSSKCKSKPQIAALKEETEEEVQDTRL

Cc1cccc2[nH]cc(C(=O)Nc3ccc(OC(C)C)c(O)c3)c(=O)c12 [Compound 701, N-(3-hydroxy-4-isopropoxy-phenyl)-5-methyl-4-oxo-1H-quinoline-3-carboxamide]
Emax: 25 to 100%

CC(C)(C)c1ccc(NC(=O)c2c[nH]c3ccccc3c2=O)cc1CO [Compound 6, N-[3-(hydroxymethyl)-4-tert-butyl-phenyl]-4-oxo-1H-quinoline-3-carboxamide]
Emax: > 100%

CC(C)c1ccc(NC(=O)c2c[nH]c3ccccc3c2=O)cc1N [Compound 69, N-(3-amino-4-isopropyl-phenyl)-4-oxo-1H-quinoline-3-carboxamide]
Emax: 25 to 100%

CC1(C)CNc2cc(NC(=O)c3c[nH]c4ccccc4c3=O)ccc21 [Compound 386, N-(3,3-dimethylindolin-6-yl)-4-oxo-1H-quinoline-3-carboxamide]
Emax: 25 to 100%

CC(C)(C)OC(=O)NC1CCCc2ccc(NC(=O)c3c[nH]c4ccccc4c3=O)cc21 (stereo not drawn) [Compound 273, [7-[(4-oxo-1H-quinolin-3-yl)carbonylamino]tetralin-1-yl]aminoformic acid tert-butyl ester]
Emax: > 100%

O=C(Nc1ccc(C(F)(F)F)cc1)c1c[nH]c2ccccc2c1=O [Compound 236, 4-oxo-N-[4-(trifluoromethyl)phenyl]-1H-quinoline-3-carboxamide]
Emax: 25 to 100%

CC(C)(C)c1ccc(N)cc1NC(=O)c1c[nH]c2ccccc2c1=O [Compound 260, N-(5-Amino-2-tert-butyl-phenyl)-4-oxo-1H-quinoline-3-carboxamide]
Emax: 25 to 100%

CCc1cccc(NC(=O)c2c[nH]c3ccccc3c2=O)n1 [Compound 125, N-(6-ethyl-2-pyridyl)-4-oxo-1H-quinoline-3-carboxamide]
Emax: 25 to 100%

O=C(Nc1ccccc1-c1ccccc1C(F)(F)F)c1c[nH]c2ccccc2c1=O [Compound 11, 4-oxo-N-[2-[2-(trifluoromethyl)phenyl]phenyl]-1H-quinoline-3-carboxamide]
Emax: 25 to 100%

Cc1ccccc1-c1nc2cc(NC(=O)c3c[nH]c4ccccc4c3=O)ccc2o1 [Compound 329, N-[2-(o-tolyl)benzooxazol-5-yl]-4-oxo-1H-quinoline-3-carboxamide]
Emax: 25 to 100%

CC(C)c1ccc(NC(=O)c2c[nH]c3ccccc3c2=O)c(C(F)(F)F)c1 [Compound 47, N-[4-isopropyl-2-(trifluoromethyl)phenyl]-4-oxo-1H-quinoline-3-carboxamide]
Emax: 25 to 100%

CC(C)(C)c1cc(F)c(NC(=O)c2c[nH]c3ccc(Cl)cc3c2=O)cc1O [Compound 561, 6-chloro-N-(2-fluoro-5-hydroxy-4-tert-butyl-phenyl)-4-oxo-1H-quinoline-3-carboxamide]
Emax: 25 to 100%

Cc1ccc(NC(=O)c2c[nH]c3ccccc3c2=O)nc1 [Compound 195, N-(5-methyl-2-pyridyl)-4-oxo-1H-quinoline-3-carboxamide]
Emax: < 25%

C[C@@H]1CCCN1c1ccc(NC(=O)c2c[nH]c3ccccc3c2=O)c(C(F)(F)F)c1 [Compound 572, (R)-N-(4-(2-methylpyrrolidin-1-yl)-2-(trifluoromethyl)phenyl)-4-oxo-1,4-dihydroquinoline-3-carboxamide]
EC50: < 10 µM | Emax: 25 to 100%

O=C(Nc1ccc2c(C3CCCC3)c[nH]c2c1)c1c[nH]c2ccccc2c1=O [Compound 186, N-(3-cyclopentyl-1H-indol-6-yl)-4-oxo-1H-quinoline-3-carboxamide]
Emax: 25 to 100%

O=C(Nc1ccc(C(F)(F)F)c(O)c1)c1c[nH]c2cccc(O)c2c1=O [Compound 700, 5-hydroxy-N-[3-hydroxy-4-(trifluoromethyl)phenyl]-4-oxo-1H-quinoline-3-carboxamide]
Emax: 25 to 100%

CCc1cccc(C(C)C)c1NC(=O)c1c[nH]c2ccccc2c1=O [Compound 314, N-(2-ethyl-6-isopropyl-phenyl)-4-oxo-1H-quinoline-3-carboxamide]
EC50: < 10 µM | Emax: 25 to 100%

O=C(Nc1ccccc1-c1cccc(F)c1F)c1c[nH]c2ccccc2c1=O [Compound 285, N-[2-(2,3-difluorophenyl)phenyl]-4-oxo-1H-quinoline-3-carboxamide]
Emax: 25 to 100%

CC(C)N1CCN(c2ccc(NC(=O)c3c[nH]c4ccccc4c3=O)c(C(F)(F)F)c2)CC1 [Compound 639, N-[4-(4-isopropylpiperazin-1-yl)-2-(trifluoromethyl)phenyl]-4-oxo-1H-quinoline-3-carboxamide]
Emax: 25 to 100%

CC(C)Cc1ccc(-c2ccccc2NC(=O)c2c[nH]c3ccccc3c2=O)cc1 [Compound 391, N-[2-(4-isobutylphenyl)phenyl]-4-oxo-1H-quinoline-3-carboxamide]
Emax: 25 to 100%

CC(C)(C)OC(=O)Nc1ccc(NC(=O)c2c[nH]c3ccccc3c2=O)c(C(F)(F)F)c1 [Compound 600, tert-butyl [[4-[(4-oxo-1H-quinolin-3-yl)carbonylamino]-3-(trifluoromethyl)phenyl]amino]formate]
Emax: 25 to 100%

O=C(Nc1ccccc1Oc1ncc(C(F)(F)F)cc1Cl)c1c[nH]c2ccccc2c1=O [Compound 42, N-[2-[[3-chloro-5-(trifluoromethyl)-2-pyridyl]oxy]phenyl]-4-oxo-1H-quinoline-3-carboxamide]
Emax: 25 to 100%

O=C(Nc1cc(C(F)(F)F)cc(C(F)(F)F)c1)c1c[nH]c2ccccc2c1=O [Compound 154, N-[3,5-bis(trifluoromethyl)phenyl]-4-oxo-1H-quinoline-3-carboxamide]
Emax: < 25%

O=C(Nc1cccc(S(=O)(=O)N2CCOCC2)c1)c1c[nH]c2ccccc2c1=O [Compound 185, N-(3-morpholinosulfonylphenyl)-4-oxo-1H-quinoline-3-carboxamide]
Emax: < 25%

CNc1ccc(C(C)C)c(NC(=O)c2c[nH]c3ccccc3c2=O)c1 [Compound 399, N-(2-isopropyl-5-methylamino-phenyl)-4-oxo-1H-quinoline-3-carboxamide]
Emax: 25 to 100%

CC(C)(C)c1c[nH]c2cc(NC(=O)c3c[nH]c4cccc(O)c4c3=O)ccc12 [Compound 535, 5-hydroxy-4-oxo-N-(3-tert-butyl-1H-indol-6-yl)-1H-quinoline-3-carboxamide]
Emax: 25 to 100%

O=C(Nc1ccc2cc[nH]c2c1)c1cnc2c(F)cc(F)cc2c1O [Compound 377, 6,8-difluoro-4-hydroxy-N-(1H-indol-6-yl)quinoline-3-carboxamide]
Emax: 25 to 100%

O=C(Nc1ccc(C(F)(F)F)nc1)c1c[nH]c2ccccc2c1=O [Compound 197, 4-oxo-N-[6-(trifluoromethyl)-3-pyridyl]-1H-quinoline-3-carboxamide]
Emax: < 25%

Cc1cccc2[nH]cc(C(=O)Nc3ccc(N4CCC(C)C4)cc3C(F)(F)F)c(=O)c12 (stereo not drawn) [Compound 546, 5-methyl-N-[4-(3-methylpyrrolidin-1-yl)-2-(trifluoromethyl)phenyl]-4-oxo-1H-quinoline-3-carboxamide]
Emax: 25 to 100%

O=C(Nc1ccc2c(c1)C(O)CCC2)c1c[nH]c2ccccc2c1=O (stereo not drawn) [Compound 200, 1,4-dihydro-N-(1,2,3,4-tetrahydro-1-hydroxynaphthalen-7-yl)-4-oxoquinoline-3-carboxamide]
Emax: 25 to 100%

CCCc1ccc(NC(=O)c2c[nH]c3ccccc3c2=O)cc1NS(C)(=O)=O [Compound 340, N-(3-methylsulfonylamino-4-propyl-phenyl)-4-oxo-1H-quinoline-3-carboxamide]
Emax: 25 to 100%

COC(=O)c1cc(NC(=O)c2c[nH]c3ccccc3c2=O)ccc1C(C)(C)C [Compound 444, 5-[(4-oxo-1H-quinolin-3-yl)carbonylamino]-2-tert-butyl-benzoic acid methyl ester]
Emax: 25 to 100%

CC(C)(C)c1ccc(NC(=O)c2c[nH]c3ccccc3c2=O)cc1N1CCCC1 [Compound 707, 4-oxo-N-(3-pyrrolidin-1-yl-4-tert-butyl-phenyl)-1H-quinoline-3-carboxamide]
Emax: 25 to 100%

CC(=O)N1CCc2ccc(NC(=O)c3c[nH]c4ccccc4c3=O)cc2C1 [Compound 303, N-(2-acetyl-1,2,3,4-tetrahydroisoquinolin-7-yl)-4-oxo-1H-quinoline-3-carboxamide]
Emax: 25 to 100%

O=C(Nc1cccc2nsnc12)c1c[nH]c2ccccc2c1=O [Compound 54, 4-oxo-N-(8-thia-7,9-diazabicyclo[4.3.0]nona-2,4,6,9-tetraen-5-yl)-1H-quinoline-3-carboxamide]
Emax: < 25%

CC(C)(C)c1cc2ccc(NC(=O)c3c[nH]c4ccccc4c3=O)cc2[nH]1 [Compound 320, 4-oxo-N-(2-tert-butyl-1H-indol-6-yl)-1H-quinoline-3-carboxamide]
Emax: 25 to 100%

O=C(Nc1ccc(Cl)cn1)c1c[nH]c2ccccc2c1=O [Compound 170, N-(5-chloro-2-pyridyl)-4-oxo-1H-quinoline-3-carboxamide]
Emax: < 25%

O=C(Nc1cccnc1Oc1ccc(F)cc1)c1c[nH]c2ccccc2c1=O [Compound 147, N-[2-(4-fluorophenoxy)-3-pyridyl]-4-oxo-1H-quinoline-3-carboxamide]
Emax: 25 to 100%

CNc1cccc2[nH]cc(C(=O)Nc3cc(O)c(C(C)(C)C)cc3C(C)(C)C)c(=O)c12 [Compound 542, N-(5-hydroxy-2,4-ditert-butyl-phenyl)-5-methylamino-4-oxo-1H-quinoline-3-carboxamide]
Emax: > 100%

O=C(Nc1ccc2nc(-c3ccccc3)[nH]c2c1)c1c[nH]c2ccccc2c1=O [Compound 73, 4-oxo-N-(2-phenyl-3H-benzoimidazol-5-yl)-1H-quinoline-3-carboxamide]
Emax: < 25%

CC(C)(C)c1cc2cc[nH]c2cc1NC(=O)c1c[nH]c2ccc(O)cc2c1=O [Compound 679, 6-hydroxy-4-oxo-N-(5-tert-butyl-1H-indol-6-yl)-1H-quinoline-3-carboxamide]
Emax: 25 to 100%

O=C(c1ccccc1)c1ccccc1NC(=O)c1c[nH]c2ccccc2c1=O [Compound 252, N-(2-benzoylphenyl)-4-oxo-1H-quinoline-3-carboxamide]
Emax: 25 to 100%

O=C(Nc1ccc2c(c1)NCC2)c1c[nH]c2ccccc2c1=O [Compound 258, N-Indolin-6-yl-4-oxo-1H-quinoline-3-carboxamide]
Emax: 25 to 100%

Reference: US8802700B2 (Vertex Pharmaceuticals Incorporated, priority 2010, dated 2014)
